US20250368633A1, “AZEPINE FUSED RING COMPOUND AS RIPK1 INHIBITOR AND USE THEREOF” (ARTIVILA BIOPHARMA, priority 2022, published 2025)
pEC50: −log10 of the molar value.

Tests used:
RIPK1 kinase = target: T1, RIPK1 kinase (Homo sapiens, UniProt Q13546); experiment: In vitro RIPK1 kinase activity assay (ADP-Glo), inhibition by compounds at 1 μM; type: biochemical; details: compound 1 μM; ATP 10 μM; MBP substrate 100 μg/mL; read-out: RIPK1 kinase activity inhibition rate range
T1 construct: purchased Promega VA7593
T1 sequence (Q13546 1-671): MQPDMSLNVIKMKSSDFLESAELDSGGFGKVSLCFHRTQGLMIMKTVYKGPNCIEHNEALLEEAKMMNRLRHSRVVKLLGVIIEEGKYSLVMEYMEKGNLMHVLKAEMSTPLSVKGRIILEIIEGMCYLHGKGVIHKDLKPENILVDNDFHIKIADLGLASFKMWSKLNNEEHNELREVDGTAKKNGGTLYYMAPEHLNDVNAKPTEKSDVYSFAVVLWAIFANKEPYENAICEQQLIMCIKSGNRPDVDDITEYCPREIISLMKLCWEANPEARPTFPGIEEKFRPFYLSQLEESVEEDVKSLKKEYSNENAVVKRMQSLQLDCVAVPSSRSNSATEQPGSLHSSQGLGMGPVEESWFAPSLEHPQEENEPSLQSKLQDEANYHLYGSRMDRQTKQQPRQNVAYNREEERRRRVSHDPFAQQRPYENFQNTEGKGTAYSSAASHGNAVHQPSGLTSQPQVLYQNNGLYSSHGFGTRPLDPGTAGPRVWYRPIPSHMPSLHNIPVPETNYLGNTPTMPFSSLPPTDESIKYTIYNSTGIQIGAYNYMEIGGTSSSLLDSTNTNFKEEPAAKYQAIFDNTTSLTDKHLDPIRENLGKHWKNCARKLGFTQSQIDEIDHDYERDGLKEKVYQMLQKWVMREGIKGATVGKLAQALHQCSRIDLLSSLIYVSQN
Summary of the method: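 Read by ADP-Glo chemiluminescence as percent inhibition: RIPK1 kinase, 15-min room-temperature compound preincubation, then 1-h reaction with MBP (100 μg/mL final) and ATP (10 μM final). Enzyme level was set by titration.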

U937 cells [1] = experiment: Inhibition rate of compound (1 μM) on necroptosis of U937 cells (TSZ-induced, CellTiter-Glo); type: cell-based; details: TSZ (hTNF-α, SM-164, Z-VAD-FMK) 20 hours
Summary of the method: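 Percent inhibition comes from ATP luminescence (CellTiter-Glo), referenced to wells without TSZ and wells with TSZ alone. The compound was added to U937 cells 15 min ahead of a TNF-α/SM-164/Z-VAD-FMK mix, followed by 20 h culture at 37° C, 5% CO2.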

U937 cells [2] = experiment: EC50 of necroptosis inhibition in U937 cells (TSZ-induced, CellTiter-Glo); type: cell-based; details: Homo sapiens, U-937; TSZ (hTNF-α, SM-164, Z-VAD-FMK) 20 hours; 10 concentration points; read-out: EC50 intervals of necroptosis inhibition in U937 cells
Summary of the method: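 Luminescent ATP readout (CellTiter-Glo) after 20 h gave viability of TSZ-challenged U937 cells; compounds were added 15 min ahead of TNF-α/SM-164/Z-VAD-FMK. EC50 derived by variable-slope nonlinear regression of inhibition relative to no-TSZ and TSZ-alone controls.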

In the case of `CN1C(=O)[C@@H](NC(=O)C(=O)NCCc2ccccc2)COc2ccc(C#CCN3CCNCC3)cc21` [Example 49, (S)—N^1-(5-methyl-4-oxo-7-(3-(piperazin-1-yl)prop-1-yn-1-yl)-2,3,4,5-tetrahydrobenzo[b][1,4]oxazepin-3-yl)-N^2-phenethyloxalamide], the inhibition at 1 µM (RIPK1 kinase) was 50 to 74%, the “Inhibition rate range of compounds (1 μM) on U937 cell necroptosis” value (shortened to “Inhibition rate range of compounds”) (U937 cells [1]) was “A (A: ≥90%)” and the pEC50 (U937 cells [2]) was 6.30 to 7.00.

With `CN1C(=O)[C@@H](NC(=O)C(=O)NCCc2ccccc2)COc2ccc(C#CC3CCN(CCOCCOCC(=O)OC(C)(C)C)CC3)cc21` [Example 53, tert-butyl (S)-2-(2-(2-(4-((5-methyl-4-oxo-3-(2-oxo-2-(phenethylamino)acetamido)-2,3,4,5-tetrahydrobenzo[b][1,4]oxazepin-7-yl)ethynyl)piperidin-1-yl)ethoxy)ethoxy)acetate] the inhibition at 1 µM (RIPK1 kinase) was 25 to 49%, the “Inhibition rate range of compounds” value (U937 cells [1]) was “A (A: ≥90%)” and the pEC50 (U937 cells [2]) was greater than 7.00.

`CN1C(=O)[C@@H](NC(=O)C(=O)NCCc2ccccc2)COc2ccc(C#CC3CCN(CCOCCOCC(=O)O)CC3)cc21` [Example 54, (S)-1-(2-(2-(carboxymethoxy)ethoxy)ethyl)-4-((5-methyl-4-oxo-3-(2-oxo-2-(phenethylamino)acetamido)-2,3,4,5-tetrahydrobenzo[b][1,4]oxazepin-7-yl)ethynyl)piperidin-1-ium 2,2,2-trifluoroacetate] was tested, and the inhibition at 1 µM (RIPK1 kinase) was 50 to 74%, the “Inhibition rate range of compounds” value (U937 cells [1]) was “B (B: 50-89%)” and the pEC50 (U937 cells [2]) was 5.70 to 6.30.

In the case of `Cc1ncsc1-c1ccc(CNC(=O)[C@@H]2C[C@@H](O)CN2C(=O)[C@@H](NC(=O)COCCOCCN2CCC(C#Cc3ccc4c(c3)N(C)C(=O)[C@@H](NC(=O)C(=O)NCCc3ccccc3)CO4)CC2)C(C)(C)C)cc1` [Example 55, N^1-((S)-7-((1-(2-(2-(2-(((S)-1-((2S,4R)-4-hydroxy-2-((4-(4-methylthiazol-5-yl)benzyl)carbamoyl)pyrrolidin-1-yl)-3,3-dimethyl-1-oxobutan-2-yl)amino)-2-oxoethoxy)ethoxy)ethyl)piperidin-4-yl)ethynyl)-5-methyl-4-oxo-2,3,4,5-tetrahydrobenzo[b][1,4]oxazepin-3-yl)-N^2-phenethyloxalamide], the inhibition at 1 µM (RIPK1 kinase) was 50 to 74%, the “Inhibition rate range of compounds” value (U937 cells [1]) was “A (A: ≥90%)” and the pEC50 (U937 cells [2]) was greater than 7.00.

In the case of `CN1C(=O)[C@@H](NC(=O)C(=O)NCCc2ccccc2)COc2ccc(C#CC3CCN(CCOCCOCC(=O)Nc4cccc5c4CN(C4CCC(=O)NC4=O)C5=O)CC3)cc21` (stereo partly drawn) [Example 56, N^1-((3S)-7-((1-(2-(2-(2-(2-(2,6-dioxopiperidin-3-yl)-(1-oxoisoindolin-4-yl)amino)-2-oxoethoxy)ethoxy)ethyl)piperidin-4-yl)ethynyl)-5-methyl-4-oxo-2,3,4,5-tetrahydrobenzo[b][1,4]oxazepin-3-yl)-N^2-phenethyloxalamide], the inhibition at 1 µM (RIPK1 kinase) was 25 to 49%, the “Inhibition rate range of compounds” value (U937 cells [1]) was “A (A: ≥90%)” and the pEC50 (U937 cells [2]) was greater than 7.00.

`CN1C(=O)[C@@H](NC(=O)C(=O)NCCc2ccccc2)COc2ccccc21` [Example 57, (S)—N^1-(5-methyl-4-oxo-2,3,4,5-tetrahydrobenzo[b][1,4]oxazepin-3-yl)-N^2-phenethyloxalamide] was tested, and the inhibition at 1 µM (RIPK1 kinase) was no less than 75%, the “Inhibition rate range of compounds” value (U937 cells [1]) was “A (A: ≥90%)” and the pEC50 (U937 cells [2]) was 6.30 to 7.00.

With `CN1C(=O)[C@@H](NC(=O)C(=O)NCc2ccccc2)COc2ccccc21` [Example 58, (S)—N^1-benzyl-N^2-(5-methyl-4-oxo-2,3,4,5-tetrahydrobenzo[b][1,4]oxazepin-3-yl)oxalamide] the inhibition at 1 µM (RIPK1 kinase) was 25 to 49%, the “Inhibition rate range of compounds” value (U937 cells [1]) was “B (B: 50-89%)” and the pEC50 (U937 cells [2]) was 5.70 to 6.30.

In the case of `CN1C(=O)C(NC(=O)C(=O)NCCc2ccccc2)CCc2cc(Br)ccc21` (stereo not drawn) [Example 63, N^1-(7-bromo-1-methyl-2-oxo-2,3,4,5-tetrahydro-1H-benzo[b]azepin-3-yl)-N^2-phenethyloxalamide], the inhibition at 1 µM (RIPK1 kinase) was 25 to 49%, the “Inhibition rate range of compounds” value (U937 cells [1]) was “A (A: ≥90%)” and the pEC50 (U937 cells [2]) was 6.30 to 7.00.

With `CN1C(=O)C(NC(=O)C(=O)NCc2ccccc2)CCc2ccccc21` (stereo not drawn) [Example 68, N^1-benzyl-N^2-(1-methyl-2-oxo-2,3,4,5-tetrahydro-1H-benzo[b]azepin-3-yl)oxalamide] the inhibition at 1 µM (RIPK1 kinase) was no less than 75%, the “Inhibition rate range of compounds” value (U937 cells [1]) was “B (B: 50-89%)” and the pEC50 (U937 cells [2]) was 5.70 to 6.30.

`CN1C(=O)C(NC(=O)C(=O)NCCc2ccccc2)CCc2cccnc21` (stereo not drawn) [Example 69, N^1-(9-methyl-8-oxo-6,7,8,9-tetrahydro-5H-pyrido[2,3-b]azepin-7-yl)-N^2-phenethyloxalamide] was tested, and the inhibition at 1 µM (RIPK1 kinase) was no less than 75%, the “Inhibition rate range of compounds” value (U937 cells [1]) was “B (B: 50-89%)” and the pEC50 (U937 cells [2]) was 5.70 to 6.30.

In the case of `CN1C(=O)[C@H](NC(=O)C(=O)NCCc2ccccc2)COc2ccc(Br)cc21` [Example 71, (R)—N^1-(7-bromo-5-methyl-4-oxo-2,3,4,5-tetrahydrobenzo[b][1,4]oxazepin-3-yl)-N^2-phenethyloxalamide], the inhibition at 1 µM (RIPK1 kinase) was 50 to 74%, the “Inhibition rate range of compounds” value (U937 cells [1]) was “B (B: 50-89%)” and the pEC50 (U937 cells [2]) was 5.70 to 6.30.

With `CN1C(=O)[C@@H](NC(=O)C(=O)NCCc2ccccc2)COc2ccc(C#CCn3ccnc3)cc21` [Example 72, (S)—N^1-(7-(3-(1H-imidazol-1-yl)prop-1-yn-1-yl)-5-methyl-4-oxo-2,3,4,5-tetrahydrobenzo[b][1,4]oxazepin-3-yl)-N^2-phenethyloxalamide] the inhibition at 1 µM (RIPK1 kinase) was no less than 75%, the “Inhibition rate range of compounds” value (U937 cells [1]) was “A (A: ≥90%)” and the pEC50 (U937 cells [2]) was greater than 7.00.

For `CN1CCC(C#Cc2ccc3c(c2)N(C)C(=O)[C@@H](NC(=O)C(=O)NCCc2ccccc2)CO3)CC1` [Example 73, (S)—N^1-(5-methyl-7-((1-methylpiperidin-4-yl)ethynyl)-4-oxo-2,3,4,5-tetrahydrobenzo[b][1,4]oxazepin-3-yl)-N^2-phenethyloxalamide], the inhibition at 1 µM (RIPK1 kinase) was no less than 75%, the “Inhibition rate range of compounds” value (U937 cells [1]) was “A (A: ≥90%)” and the pEC50 (U937 cells [2]) was greater than 7.00.

`CN(C)c1ccc(C#Cc2ccc3c(c2)N(C)C(=O)[C@@H](NC(=O)C(=O)NCCc2ccccc2)CO3)cc1` [Example 75, (S)—N^1-(7-((4-(dimethylamino)phenyl)ethynyl)-5-methyl-4-oxo-2,3,4,5-tetrahydrobenzo[b][1,4]oxazepin-3-yl)-N^2-phenethyloxalamide] was tested, and the inhibition at 1 µM (RIPK1 kinase) was 25 to 49%, the “Inhibition rate range of compounds” value (U937 cells [1]) was “A (A: ≥90%)” and the pEC50 (U937 cells [2]) was greater than 7.00.

With `CN1C(=O)[C@@H](NC(=O)C(=O)NCCc2ccccc2)COc2ccc(C#CCN3CCN(CCO)CC3)cc21` [Example 83, (S)—N^1-(7-(3-(4-(2-hydroxyethyl)piperazin-1-yl)prop-1-yn-1-yl)-5-methyl-4-oxo-2,3,4,5-tetrahydrobenzo[b][1,4]oxazepin-3-yl)-N^2-phenethyloxalamide] the inhibition at 1 µM (RIPK1 kinase) was no less than 75%, the “Inhibition rate range of compounds” value (U937 cells [1]) was “A (A: ≥90%)” and the pEC50 (U937 cells [2]) was greater than 7.00.

With `CN1C(=O)[C@@H](NC(=O)C(=O)NCCc2ccccc2)COc2ccc(C#CCN)cc21.Cl` [Example 87, (S)—N^1-(7-(3-aminoprop-1-yn-1-yl)-5-methyl-4-oxo-2,3,4,5-tetrahydrobenzo[b][1,4]oxazepin-3-yl)-N^2-phenethyloxalamide hydrochloride] the inhibition at 1 µM (RIPK1 kinase) was 25 to 49%, the “Inhibition rate range of compounds” value (U937 cells [1]) was “B (B: 50-89%)” and the pEC50 (U937 cells [2]) was 5.70 to 6.30.

With `CC(=O)N1CC(O)(C#Cc2ccc3c(c2)N(C)C(=O)[C@@H](NC(=O)C(=O)NCCc2ccccc2)CO3)C1` [Example 93, (S)—N^1-(7-((1-acetyl-3-hydroxyazetidin-3-yl)ethynyl)-5-methyl-4-oxo-2,3,4,5-tetrahydrobenzo[b][1,4]oxazepin-3-yl)-N^2-phenethyloxalamide] the inhibition at 1 µM (RIPK1 kinase) was no less than 75%, the “Inhibition rate range of compounds” value (U937 cells [1]) was “A (A: ≥90%)” and the pEC50 (U937 cells [2]) was 6.30 to 7.00.

With `CN1C(=O)[C@@H](NC(=O)C(=O)NCCc2ccccc2)COc2ccc(C#CCCC(=O)O)cc21` [Example 95, (S)-5-(5-methyl-4-oxo-3-(2-oxo-2-(phenethylamino)acetamido)-2,3,4,5-tetrahydrobenzo[b][1,4]oxazepin-7-yl) pent-4-ynoic acid] the inhibition at 1 µM (RIPK1 kinase) was no less than 75%, the “Inhibition rate range of compounds” value (U937 cells [1]) was “B (B: 50-89%)” and the pEC50 (U937 cells [2]) was 5.70 to 6.30.
